Reference: publication PMC6647725 (Analytical and Bioanalytical Chemistry, 2019)

Tests used:
[1] = Stability in human plasma and its final extract (LC-MS/MS); assay type: in vitro ADME; settings: nominal 5 ng/mL
Description: 50 μL of the sample (either from a preclinical study, calibration standard, or QC) was mixed with 25 μL of IS-working solution, followed by 150 μL of ACN for protein precipitation. Samples were vortex mixed and centrifuged at 23,100g for 10 min at 20 °C. An aliquot of 80 μL of supernatant was diluted with 120 μL of 10 mM ammonium bicarbonate in water:MeOH (1:1 v/v). The final extract was transferred to a glass vial with insert, and 10 μL was injected to the LC-MS/MS system for analysis.
The stability of each analyte was investigated in all the previously mentioned matrices. For plasma (both human and mouse), the stability was determined in triplicate at two concentration levels, QC L and QC H, whereas for mouse tissue homogenates only at QC M (except the brain in one stability condition). For all matrices, the following stability conditions were assessed: short term at room temperature (RT), long term at − 20 °C, and after 3 freeze-thaw (F/T) cycles at − 20 °C/RT. Furthermore, for tissue homogenates, the short-term stability in ice-water, long-term stability at − 70 °C, and F/T stability at − 70 °C/ice-water were also evaluated. Additionally, the stability in the final extract was tested. […] Lastly, the stability of the stock solutions at − 20 °C was investigated.

[2] = Stability in mouse liver homogenate and its final extract; assay type: in vitro ADME; settings: nominal 50 ng/mL
Description: (§1) After weighing the complete organ, a volume of 3 mL of this solution was added to the liver and small intestine, 2 mL to the kidneys, and 1 mL to the brain and spleen. The tissue/BSA ratio (w/v) of the homogenates were approximately 0.4:1 for the brain and liver, 0.1:1 for the spleen, 0.2:1 for the kidneys, and 0.25:1 for the small intestine. All samples were shaken in the Fast Prep at 6.0 m/s during 60 s. The stability of each analyte was investigated in all the previously mentioned matrices. For plasma (both human and mouse), the stability was determined in triplicate at two concentration levels, QC L and QC H, whereas for mouse tissue homogenates only at QC M (except the brain in one stability condition). For all matrices, the following stability conditions were assessed: short term at room temperature (RT), long term at − 20 °C, and after 3 freeze-thaw (F/T) cycles at − 20 °C/RT. Furthermore, for tissue homogenates, the short-term stability in ice-water, long-term stability at − 70 °C, and F/T stability at − 70 °C/ice-water were also evaluated. Additionally, the stability in the final extract was tested. For this, the QC L and QC H final extracts from the plasma, brain, and spleen and the QC M final extract from the liver, kidney and small intestine were stored at 4–8 °C up to 3 days. Lastly, the stability of the stock solutions at − 20 °C was investigated.

[3] = Stability in mouse spleen homogenate and its final extract; assay type: in vitro ADME
Description: as §1

[4] = Stability in mouse kidney homogenate and its final extract; assay type: in vitro ADME; settings: nominal 50 ng/mL
Description: as §1

[5] = Stability in mouse brain homogenate and its final extract; assay type: in vitro ADME
Description: as §1

[6] = Stability in mouse small intestine homogenate and its final extract; assay type: in vitro ADME; settings: nominal 50 ng/mL
Description: as §1

[7] = Stability in tissue homogenates; assay type: in vitro ADME, mouse
Description: The stability of each analyte was investigated in all the previously mentioned matrices. For plasma (both human and mouse), the stability was determined in triplicate at two concentration levels, QC L and QC H, whereas for mouse tissue homogenates only at QC M (except the brain in one stability condition). For all matrices, the following stability conditions were assessed: short term at room temperature (RT), long term at − 20 °C, and after 3 freeze-thaw (F/T) cycles at − 20 °C/RT. Furthermore, for tissue homogenates, the short-term stability in ice-water, long-term stability at − 70 °C, and F/T stability at − 70 °C/ice-water were also evaluated. Additionally, the stability in the final extract was tested. For this, the QC L and QC H final extracts from the plasma, brain, and spleen and the QC M final extract from the liver, kidney and small intestine were stored at 4–8 °C up to 3 days. Lastly, the stability of the stock solutions at − 20 °C was investigated.

[8] = system: CDK4; settings: cited from earlier work
[9] = system: CDK6; settings: cited from earlier work
[10] = liver homogenate, 3 F/T (− 70 °C, ice/water bath)
[11] = final extract (listed under spleen homogenate), 4–8 °C, 3 d, nominal 5 ng/mL
[12] = kidney homogenate, LT − 70 °C, 1 m
[13] = brain homogenate, 3 F/T (− 70 °C, ice/water bath), nominal 50 ng/mL
[14] = brain homogenate, LT − 70 °C, 1 m, nominal 50 ng/mL
[15] = final extract (listed under brain homogenate), 4–8 °C, 3 d, nominal 5 ng/mL
[16] = small intestine homogenate, 3 F/T (− 70 °C, ice/water bath)
[17] = small intestine homogenate, RT, 3 h

SMILES: CN(C)C(=O)c1cc2cnc(Nc3ccc(N4CCNCC4)cn3)nc2n1C1CCCC1 [Ribociclib]
- Mean concentration ([1]; human plasma, 2 F/T (− 20 °C/RT)): 0.0047 µg/mL
- Mean concentration ([2]; liver homogenate, 3 F/T (RT, − 20 °C)): 0.0477 µg/mL
- Accuracy (% Bias) [2, 10]: 0.1%
- Mean concentration [2, 10]: 0.05 µg/mL
- Mean concentration ([2]; liver homogenate, LT − 20 °C, 1 m): 0.0324 µg/mL
- Mean concentration ([2]; liver homogenate, RT, 1 d): 0.0419 µg/mL
- Mean concentration ([2]; liver homogenate, ice/water bath, 3 h): 0.0454 µg/mL
- Accuracy (% Bias) [3, 11]: 3.2%
- Mean concentration ([3]; spleen homogenate, 3 F/T (RT, − 20 °C), nominal 50 ng/mL): 0.0429 µg/mL
- Mean concentration ([3]; spleen homogenate, 3 F/T (− 70 °C, ice/water bath), nominal 50 ng/mL): 0.0499 µg/mL
- Mean concentration ([3]; spleen homogenate, LT − 20 °C, 1 m, nominal 50 ng/mL): 0.0405 µg/mL
- Mean concentration ([3]; spleen homogenate, LT − 70 °C, 1 m, nominal 50 ng/mL): 0.045 µg/mL
- Mean concentration ([3]; spleen homogenate, RT, 3 h, nominal 50 ng/mL): 0.0443 µg/mL
- Mean concentration ([3]; spleen homogenate, RT, 1 d, nominal 50 ng/mL): 0.0218 µg/mL
- Mean concentration ([3]; spleen homogenate, ice/water bath, 3 h, nominal 50 ng/mL): 0.0462 µg/mL
- Mean concentration ([4]; kidney homogenate, 3 F/T (RT, − 20 °C)): 0.0157 µg/mL
- Mean concentration ([4]; kidney homogenate, 3 F/T (− 70 °C, ice/water bath)): 0.0491 µg/mL
- Mean concentration ([4]; kidney homogenate, LT − 20 °C, 1 m): 0.0315 µg/mL
- Accuracy (% Bias) [4, 12]: 0.5%
- Mean concentration [4, 12]: 0.0502 µg/mL
- Mean concentration ([4]; kidney homogenate, RT, 3 h): 0.0434 µg/mL
- Mean concentration ([4]; kidney homogenate, RT, 1 d): 0.00091 µg/mL
- Mean concentration ([4]; kidney homogenate, ice/water bath, 3 h): 0.0427 µg/mL
- Mean concentration ([5]; brain homogenate, 3 F/T (RT, − 20 °C), nominal 50 ng/mL): 0.0488 µg/mL
- Accuracy (% Bias) [5, 13]: 0.1%
- Mean concentration [5, 13]: 0.05 µg/mL
- Mean concentration ([5]; brain homogenate, LT − 20 °C, 1 m, nominal 50 ng/mL): 0.0491 µg/mL
- Accuracy (% Bias) [5, 14]: 4.6%
- Mean concentration [5, 14]: 0.0523 µg/mL
- Mean concentration ([5]; brain homogenate, RT, 1 d, nominal 5 ng/mL): 0.0046 µg/mL
- Mean concentration ([5]; brain homogenate, RT, 1 d, nominal 150 ng/mL): 0.1297 µg/mL
- Mean concentration ([5]; brain homogenate, ice/water bath, 3 h, nominal 50 ng/mL): 0.0494 µg/mL
- Accuracy (% Bias) [5, 15]: 2.7%
- Accuracy (% Bias) ([5]; final extract (listed under brain homogenate), 4–8 °C, 3 d, nominal 150 ng/mL): 3.1%
- Mean concentration ([6]; small intestine homogenate, 3 F/T (RT, − 20 °C)): 0.0456 µg/mL
- Accuracy (% Bias) [6, 16]: 0.1%
- Mean concentration [6, 16]: 0.05 µg/mL
- Mean concentration ([6]; small intestine homogenate, LT − 20 °C, 1 m): 0.0389 µg/mL
- Mean concentration ([6]; small intestine homogenate, LT − 70 °C, 1 m): 0.0489 µg/mL
- Accuracy (% Bias) [6, 17]: 1.3%
- Mean concentration [6, 17]: 0.0506 µg/mL
- Mean concentration ([6]; small intestine homogenate, RT, 1 d): 0.0419 µg/mL
- Mean concentration ([6]; small intestine homogenate, ice/water bath, 3 h): 0.0484 µg/mL
- stability in tissue homogenates (in words) ([7]; all tissue homogenates and conditions of Table 6): showed instability in tissue homogenates
- time stable in kidney and spleen homogenates ([7]; room temperature and ice/water bath): at least 3 h
- IC50 [9]: 0.039 µM
